Experimental data published in publication PMC10382589, “In vitro and in vivo antiplasmodial evaluation of sugar-modified nucleoside analogues” (Scientific Reports, 2023).
“Also recorded” adds a separate entry of the source. Read-outs that look alike come from different tables or passages of the source.

Tests used:
[1] = test system: Mitochondrial membrane potential of the malaria parasites; assay: JC-1 mitochondrial membrane potential assay; format: cell-based, Plasmodium falciparum; conditions: parasites treated with IC50 concentration for 3 h; untreated control 7.04 ± 1.30
From the text: Mitochondrial membrane potential is a marker of mitochondria’s functional status. Modification in mitochondrial membrane potential leading to mitochondrial dysfunction triggers cell death[25],[26]. Mitochondrial dysfunction was detected by using membrane permeant JC-1 dye. JC-1 is a cationic probe, due to electronegative environment inside the functionally active mitochondria with high Δψm, it aggregates in energised mitochondria and gives red color fluorescence at 590 nm, but in case of low Δψm (depolarized state), JC-1 remain in monomeric form and gives green color fluorescence at […]. Decreased ratio of red/green fluorescence intensity of compound treated sample as compared to untreated control indicates depolarized mitochondrial membrane[27],[28]. The damage to the parasite's mitochondria after treatment with compounds 7, 16, 17, 18 and 1 was measured according to the method reported previously. Because of lipophilic nature of the JC-1, it is cell permeable and emits a green signal (525 nm) in the cytoplasm, but the high transmembrane potential of functional mitochondria causes it to aggregate and emit a red signal (590 nm). […]. Mitochondrial membrane potential of the malaria parasites was determined by using MitoProbe™ JC-1 assay as described previously. In brief, trophozoite stage parasites (10–12% parasitemia) were treated with IC50 concentration of compounds 7, 16, 17, 18 and 1 for 3 h at 37 °C in the CO2 incubator. Samples were washed with 1 × PBS by centrifugation at 500 × g for 2 min at RT. Freshly prepared JC-1 dye was added to each sample with working concentration of 5 µg/mL. Incubation was done for 30 min at 37 °C in a CO2 incubator. Cells were washed twice with 1 × PBS. Spectrofluorometer was used to observe mitochondrial membrane potential by measuring fluoroscence intensities from the parasite lysate at wavelength of excitation (520 nm) and emission (590 nm) respectively. In vivo cell imaging was done with the help of Olympus fluoview 3000 confocal microscopy. Live cell imaging was observed under a 100X objective (oil immersion) and band pass filter at 355–460 nm. Experiments were repeated thrice and only representative figures are shown (Fig. 6).

human RBCs = assay: Hemolytic activity on human RBCs; format: cell-based; conditions: 0.5-20 µM, 10% (v/v) RBC suspension, 1 h, absorbance at 415 nm
Method: Effect of compounds on human RBCs was checked with the help of spectrophotometry by measuring the lysis of human red blood cells (hRBCs). Compounds were tested at 0.5, 1, 5, 10 and 20 μM concentrations with 10% (v/v) RBCs suspension for 1 h and observed the percentage of RBCs lysis by compounds 7, 16, 17, 18 and 1.
Human RBCs were from Rotary Blood Bank, Tughlakabad Institutional Area, New Delhi, India. Effect of compounds on RBCs was checked by hemolytic assay. In brief, RBCs suspension with 10% (v/v) washed with 1 × Phosphate-buffered saline (PBS) (pH 7.4) and again resuspended in 1 × PBS. RBCs suspension was incubated with compounds 7, 16, 17, 18 and 1 at different concentrations (0.5, 1, 5, 10 and 20 μM) for 1 h at 37 °C. Samples were centrifuged and supernatant was taken for absorbance at 415 nm. Triton X-100 with 1% (v/v) was used as a positive control. Experiment was done in triplicate.

[2] = test system: Pf3D7 chloroquine-sensitive strain; assay: SYBR green I based fluorescence growth inhibition assay, Pf3D7; format: cell-based, Plasmodium falciparum; conditions: for IC50: Plasmodium falciparum, chloroquine-sensitive strain, synchronized late trophozoite parasites, SYBR Green, triplicate, mean ± SD, read-out: IC50 (µM) against Pf3D7; for growth inhibition against Pf3D7 (in words): screen at 1 µM and 10 µM, vs untreated control (Fig. S1)
Method: Growth of one intraerythrocytic cycle of Pf was monitored after treated with compounds whereas untreated parasites were considered as control.
(§1) The percent growth inhibition of the parasites was evaluated by SYBR Green assay.
(§2) Pf3D7 and PfRKL-9 were cultured by following procedure reported by Trager and Jensen[33]. […] In order to examine the morphological changes in the parasite, a blood film must be prepared. A thin blood film was air-dried, fixed with methanol, and allowed to dry before staining. […] Light microscopy analysis was carried out to evaluate the inhibitory effect of compounds at different concentrations against Pf3D7 and PfRKL-9.
SYBR green I based fluorescence assay was performed to measure the growth inhibition effect of the 26 compounds and further dose dependent assay against Pf3D7, and PfRKL-9 (Indian field strain, source- NIMR, New Delhi, India) was carried out at different concentrations. […] Parasitized erythrocytes were treated with different concentrations of compounds ranging from 1 µM to 10 µM, whereas DMSO worked as a control. Triplicate wells of parasitized erythrocytes treated with compounds were seeded in 96 well microtiter plate following incubation at 37 °C for one cycle of parasite growth. […] Growth inhibition (%) was calculated as follows: % Inhibition = [1 − % Parasitemia (Treatment)/% Parasitemia (Control)] *100. Data were expressed as mean ± SD.

[3] = test system: embryonic kidney cell lines, HEK-293
Method: Cytotoxicity against human embryonic kidney cell line (ATCC) was determined using MTT dye[35]. In order to measuring the cytotoxicity of the compounds we used MTT dye to detect live/dead cells. […] cells were stored at 37 °C, 5% CO2 in […] sterile culture flasks (Corning) in complete Dulbecco's Modified Eagle Medium (DMEM) culture medium (a) supplemented with 5% Fetal Bovine Serum (FBS), gentamicin ([…]), with changing the medium thrice a week. The monolayers were washed, counted, diluted in complete medium, distributed in 96-well microtiter plates (5000 cells/well), followed by incubation for another 24 h at 37 °C. The test compounds and DMSO were added in triplicate. After a 48 h incubation at 37 °C, the supernatant was removed and 100 µL of MTT solution in complete DMEM was added to each well, followed by 2 h incubation at 37 °C. The culture plates were read in a spectrophotometer (Tecan infinite M200, nanoquant, UK) with a 490 nm filter, and the cytotoxic concentrations were determined based on a dose response curve.

[4] = test system: chloroquine resistant strain PfRKL-9; assay: SYBR green I based fluorescence growth inhibition assay, PfRKL-9; format: cell-based; conditions: Plasmodium falciparum, synchronized late trophozoite parasites, triplicate, mean ± SD, read-out: IC50 (µM) against PfRKL-9
Method: as §1, §2
SYBR green I based fluorescence assay was performed to measure the growth inhibition effect of the 26 compounds and further dose dependent assay against Pf3D7, and PfRKL-9 (Indian field strain, source- NIMR, New Delhi, India) was carried out at different concentrations. In brief, Pf3D7 and PfRKL-9 parasitized erythrocytes (trophozoite stage with 1% parasitemia) were diluted with noninfected erythrocytes at a constant 2% hematocrit in culture medium. Parasitized erythrocytes were treated with different concentrations of compounds ranging from 1 µM to 10 µM, whereas DMSO worked as a control. Triplicate wells of parasitized erythrocytes treated with compounds were seeded in 96 well microtiter plate following incubation at 37 °C for one cycle of parasite growth. […] Growth inhibition (%) was calculated as follows: % Inhibition = [1 − % Parasitemia (Treatment)/% Parasitemia (Control)] *100. Data were expressed as mean ± SD.

P. berghei ANKA = assay: In vivo antiplasmodial activity in P. berghei ANKA infected BALB/c mice; set-up: species or system Plasmodium berghei ANKA
Method: In vivo antiplasmodial efficacy of 7 was assessed in P. berghei ANKA infected BALB/c mice model. Compound dose was given intra-peritoneal injections for seven days in a row. To check the parasitemia, thin blood smears were made from P. berghei ANKA infected mice for up to seven consecutive days. […] Compound 7 was able to effectively reduce the parasite load compared to a control group of untreated mice for seven consecutive days post infection.
To make relevant inferences, statistical analyses were carried out on the in vivo data using Graphpad Prism data sheets.
Antiplasmodial activity of hit compound 7 was investigated in mice model with the help of protocol described previously. Briefly, intra-peritoneal injection of 1 × 10^7 Plasmodium berghei ANKA infected erythrocytes diluted with sterile 1 × PBS was injected into mice. In each group five mice were taken. Thin smears were made from the tail blood of mice to check the infection. Post infection, P. berghei infected mice administered intra-peritoneally with compound 7 with the dose of 50 mg/kg body weight, daily for seven consecutive days post infection. Mice treated with 1xPBS were kept as vehicle control. […] Data were calculated and presented as percentage increase in the parasitemia. All animal experiments were carried out in accordance with the standard approved procedures. […]

[5] = HEK-293 cells, MTT, 48 h incubation

Row | Structure (SMILES) | JC-1 red/green ratio [1] | lysis of human RBCs (in words) (human RBCs) | IC50 [2] | growth inhibition against Pf3D7 (in words) [2] | Cell survival (%) at 500 µM ([3]; human, 48 h) | IC50 [4] | Cell survival (%) at 500 µM [3, 5] | percentage parasitemia on the seventh day (P. berghei ANKA; 50 mg/kg intra-peritoneal, seven days, control 25%) | Mean survival time (MST) (P. berghei ANKA; 50 mg/kg, observed 21 days post-infection, control MST = 10 days)
1 | CC(=O)N[C@@H]1[C@@H](OC(C)=O)[C@H](OC(C)=O)[C@@H](COC(C)=O)O[C@H]1SC[C@@H]1[C@@H](O[Si](C)(C)C(C)(C)C)[C@H](n2cc(C)c(=O)[nH]c2=O)O[C@@H]1CO[Si](C)(C)C(C)(C)C [Compound 18, 1-[3’-Deoxy-3’-C-((2-acetamido-3,4,6-tri-O-acetyl-β-D-glucopyranosylthio)methyl)-2’,5’-di-O-(tert-butyldimethylsilyl)-β-D-xylofuranosyl]-5-methyluracil] | 5.53 ± 1.40 | no significant lysis | 1.15 ± 1.5 µM | significant growth inhibition in a dose dependent manner | 60% | 2.21 ± 1.3 µM |  |  | 
2 | Cc1cn([C@@H]2O[C@H](CN3C[C@@H](COC(c4ccccc4)(c4ccccc4)c4ccccc4)O[C@@H](n4ccc(=O)[nH]c4=O)C3)[C@H]3OC(C)(C)O[C@H]32)c(=O)[nH]c1=O [Compound 1] | 5.69 ± 0.70 | no significant lysis | 1.31 ± 1.1 µM | significant growth inhibition in a dose dependent manner; also recorded: good/excellent inhibitory effect |  | 1.83 ± 0.7 µM | 45% |  | 
3 | CC(=O)O[C@@H]1[C@@H](OC(C)=O)[C@H](SC[C@@H]2[C@@H](O[Si](C)(C)C(C)(C)C)[C@H](n3ccc(=O)[nH]c3=O)O[C@@H]2CO[Si](C)(C)C(C)(C)C)OC[C@H]1OC(C)=O [Compound 17, 1-[3’-Deoxy-3’-C-(-2,3,4-tri-O-acetyl-β-D-xylopyranosyl-sulfanylmethyl)-2’,5’-di-O-(tert-butyldimethylsilyl)-β-D-xylofuranosyl]-uracil] | 6.28 ± 1.55 | no significant lysis | 1.33 ± 1.07 µM | significant growth inhibition in a dose dependent manner | 51% | 1.84 ± 1.06 µM |  |  | 
4 | CC(=O)OC[C@H]1O[C@@H](SC[C@@H]2O[C@@H](n3cnc4c(NC(c5ccccc5)(c5ccccc5)c5ccccc5)ncnc43)[C@@H]3OC(C)(C)O[C@@H]32)[C@H](OC(C)=O)[C@@H](OC(C)=O)[C@@H]1OC(C)=O [Compound 7, 1-[2’,3’-O-isopropylidene-5’-S-(2,3,4,6-tetra-O-acetyl-β-D-glucopyranosyl)-5’-thio-α-L-lyxofuranosyl]-N-trityl-adenine] | 5.26 ± 1.13 | no significant lysis | 0.92 ± 1.8 µM | significant growth inhibition in a dose dependent manner |  | 2.1 ± 1.3 µM | 55% | 10% | 14 days
